From patent US10278394B2, “Compounds derived from herbicidal carboxylic acids and tetraalkylammonium or (arylalkyl)trialkylammonium hydroxides” (Dow AgroSciences LLC, priority 2007, dated 2019)

System: grapes (Vitis labrusca L.)
Test: Volatility evaluation: injury to grapes from vapor exposure to treated wheat
Format: in vivo
Conditions: wheat sprayed at 11200 g ae/ha; 24 hour vapor exposure at 40° C.; evaluated 7 days after exposure
Excerpt: Method for evaluating the volatility of herbicide standards and the compounds derived from combining a carboxylic acid herbicide with either a tetraalkylammonium or an (arylalkyl)trialkylammonium hydroxide.
Four pots of wheat (Triticum aestivum L.) grown in 4 inch square pots were sprayed at 11200 g ae/ha with each of the different forms of 2,4-D. Treatments were applied with a tracksprayer manufactured by Allen Machine Works. The sprayer utilized an 8002E spray nozzle, spray pressure of 262 kPa pressure and speed of 1.5 mph (2.4 km/h) to deliver 187 L/Ha. The nozzle height was 46 cm above the plant canopy. The growth stage of the wheat was 1 to 2 leaf. The wheat plants were allowed to thoroughly dry to ensure that none of the spray solution was present when they were moved into a clean pot flat. A known sensitive species, grapes (Vitis labrusca L.) were placed at the opposite end of the flat. All of the pots were covered with a humidome with small ½ inch (1.27 cm) diameter holes cut into the end where the wheat was placed and a small box fan powered with a battery in the other end to pull air across the treated wheat plants and over the top of grapes. […] A 24 hour exposure period was used after which the sensitive plants were then removed and placed in the greenhouse and evaluated for injury from vapor exposure to the treatments.

SMILES: CNC.COc1c(Cl)ccc(Cl)c1C(=O)O [Dicamba DMA]
- % Injury to grapes from vapor exposure: 70%
